EC50, IC50 and AC50 data for five compounds are collected here from ChEMBL document CHEMBL1201862, “PubChem BioAssay data set” (2004).

The source made the active and inactive calls. A value given as a limit tells only on which side of the number the result lay.

Test [1] is described as follows: Counterscreen for activators of the function of SWI/SNF related, matrix associated, actin dependent regulator of chromatin, subfamily a, member 2 (SMARCA2, BRM): Luminescence-based cell-based high throughput dose response assay to identify non-selective compounds using the VP16 reporter assay. In kind it is functional. In general terms: Counterscreens check selectivity or assay interference.

Test [2] relates to HEK293. Description: cells. The conditions noted are these: Homo sapiens.
Test [3] has as its target DNA (cytosine-5)-methyltransferase 1 (Homo sapiens, UniProt P26358). Description: inhibition of DNA methylation by DNMT1 – biochemical, fluorescent molecular beacon, confirmation (AID 602386). In kind it is functional.
Test [4] has as its target SWI/SNF-related matrix-associated actin-dependent regulator of chromatin subfamily A member 2 (Homo sapiens, UniProt P51531). In words: Luminescence-based cell-based high throughput dose response assay to identify activators of the function of SWI/SNF related, matrix associated, actin dependent regulator of chromatin, subfamily a, member 2 (SMARCA2, BRM). In kind it is functional.

The target in test [5] is T1, DNA repair protein RAD52 homolog (Homo sapiens, UniProt P43351).
T1 sequence (P43351 whole entry): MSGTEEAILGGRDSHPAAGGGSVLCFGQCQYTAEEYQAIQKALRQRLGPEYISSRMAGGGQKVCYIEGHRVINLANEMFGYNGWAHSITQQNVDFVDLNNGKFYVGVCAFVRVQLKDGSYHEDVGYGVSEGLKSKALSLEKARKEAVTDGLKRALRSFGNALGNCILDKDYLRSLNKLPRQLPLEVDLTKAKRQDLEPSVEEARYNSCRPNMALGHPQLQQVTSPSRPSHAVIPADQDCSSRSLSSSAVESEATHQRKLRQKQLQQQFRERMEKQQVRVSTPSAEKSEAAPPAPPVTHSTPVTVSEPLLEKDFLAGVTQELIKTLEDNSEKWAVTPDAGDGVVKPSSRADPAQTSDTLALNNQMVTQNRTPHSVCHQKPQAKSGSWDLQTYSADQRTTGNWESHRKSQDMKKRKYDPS
In kind it is functional, biochemical.

Test [6] addresses E3 ubiquitin-protein ligase UHRF1 (Homo sapiens, UniProt Q96T88). Description: Counterscreen for inhibitors of 5-meCpG-binding domain protein 2 (MBD2): TRFRET-based biochemical high throughput dose response assay to identify inhibitors of binding of ubiquitin-like with PHD and ring finger domains 1 (UHRF1) to methylated oligonucleotide.
Test [7] concerns HEK293. Description: cells. The note with it: Homo sapiens. The source holds these as a separate data set.
Test [8] addresses Neuropeptide Y receptor type 2 (Homo sapiens, UniProt P49146). Description: Fluorescence-based cell-based high-throughput dose response assay for agonists of NPY-Y2. [Related pubchem assays: 1703 (Screening assay (CNGC inhibitors).), 1359 (Screening assay (NPY-Y2 potentiators or agonists).), 1304 (Screening assay (NPY-Y1 potentiators or agonists).), 1710 (Screening assay (NPY-Y2 agonists).), 1791 (Summary AID.)]. In kind it is functional.

In test [9] the test system is HEK293. Description: Fluorescence-based counterscreen for potentiators or agonists of NPY-Y2: cell-based high-throughput dose response assay to identify inhibitors of cyclic nucleotide gated ion channel (CNGC) activity. In this assay, the parental HEK293 cell line transfected with a cyclic-nucleotide gated ion channel (CNGC)-based cAMP sensor is used to measure inhibition of isoproterenol-induced CNGC activity by test compound. In kind it is functional. The note with it: Homo sapiens.

In test [10] the target is T2, Beta-2 adrenergic receptor (Homo sapiens, UniProt P07550). In words: Dose response for HTS for Beta-2AR agonists via FAP method from Powderset3. In kind it is functional.
T2 sequence (P07550 whole entry): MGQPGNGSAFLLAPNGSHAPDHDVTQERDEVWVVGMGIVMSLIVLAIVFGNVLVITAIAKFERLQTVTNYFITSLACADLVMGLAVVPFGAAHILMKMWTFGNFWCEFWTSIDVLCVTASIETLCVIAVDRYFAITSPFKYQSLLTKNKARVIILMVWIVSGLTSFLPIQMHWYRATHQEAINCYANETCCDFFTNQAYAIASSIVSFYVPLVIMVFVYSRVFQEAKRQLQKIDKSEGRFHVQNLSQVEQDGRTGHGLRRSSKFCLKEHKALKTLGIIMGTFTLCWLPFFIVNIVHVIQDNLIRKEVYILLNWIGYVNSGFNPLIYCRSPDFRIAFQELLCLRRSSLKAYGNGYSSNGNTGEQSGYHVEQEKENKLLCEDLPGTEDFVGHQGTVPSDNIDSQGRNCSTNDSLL
The target in test [11] is T2, Beta-2 adrenergic receptor. Description: ADRB2 activation measured by internalization – cell-based, FAP fluorogen, flow cytometry, cherry pick 1, dose response (AID 588763). In kind it is functional. On the technique in general: Flow cytometry measures light scatter and fluorescence of single cells or particles in a stream.
For test [12], the target named is Neuropeptide Y receptor type 1 (Homo sapiens, UniProt P25929). In words: Fluorescence-based counterscreen for agonists of NPY-Y2: cell-based high-throughput dose response assay for agonists of NPY-Y1. In kind it is functional.
Neuropeptide Y receptor type 1, sequence (P25929 whole entry): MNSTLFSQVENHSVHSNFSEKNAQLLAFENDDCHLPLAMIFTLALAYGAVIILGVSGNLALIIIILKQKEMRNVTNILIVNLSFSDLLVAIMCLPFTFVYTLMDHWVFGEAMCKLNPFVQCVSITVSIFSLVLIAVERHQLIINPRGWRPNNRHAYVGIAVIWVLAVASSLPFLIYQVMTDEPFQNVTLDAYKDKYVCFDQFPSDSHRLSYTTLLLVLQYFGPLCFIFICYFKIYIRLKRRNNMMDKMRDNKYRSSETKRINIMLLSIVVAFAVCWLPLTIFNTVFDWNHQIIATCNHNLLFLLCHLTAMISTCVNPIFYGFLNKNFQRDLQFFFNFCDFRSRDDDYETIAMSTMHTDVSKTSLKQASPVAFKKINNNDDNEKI
Test [13] deals with T3, Corticotropin-releasing factor receptor 2/Corticotropin-releasing factor-binding protein (Homo sapiens, UniProt P24387+Q13324).
T3 sequence (Q13324 whole entry): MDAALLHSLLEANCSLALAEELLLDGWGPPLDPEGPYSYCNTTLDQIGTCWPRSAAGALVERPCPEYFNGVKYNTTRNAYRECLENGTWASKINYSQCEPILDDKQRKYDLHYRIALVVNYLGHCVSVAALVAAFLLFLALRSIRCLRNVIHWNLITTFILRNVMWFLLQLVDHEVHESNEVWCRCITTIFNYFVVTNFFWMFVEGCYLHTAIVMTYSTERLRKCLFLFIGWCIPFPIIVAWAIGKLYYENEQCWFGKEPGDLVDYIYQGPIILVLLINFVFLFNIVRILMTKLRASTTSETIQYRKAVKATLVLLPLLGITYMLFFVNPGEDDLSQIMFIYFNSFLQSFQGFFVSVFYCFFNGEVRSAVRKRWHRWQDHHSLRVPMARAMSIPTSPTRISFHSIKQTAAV
T3 sequence (P24387 whole entry): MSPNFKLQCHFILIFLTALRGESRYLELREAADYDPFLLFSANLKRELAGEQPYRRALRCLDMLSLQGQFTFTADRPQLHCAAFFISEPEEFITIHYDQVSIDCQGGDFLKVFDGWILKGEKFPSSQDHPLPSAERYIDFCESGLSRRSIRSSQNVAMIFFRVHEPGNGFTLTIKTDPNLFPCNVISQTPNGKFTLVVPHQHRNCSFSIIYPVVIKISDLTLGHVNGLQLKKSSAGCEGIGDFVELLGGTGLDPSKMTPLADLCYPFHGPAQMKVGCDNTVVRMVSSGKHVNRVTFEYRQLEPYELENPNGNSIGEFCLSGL
In words: activators of CRF receptor 2 with binding protein – uHTS hits, confirmation (AID 602473). The conditions noted are these: read-out: EC50_Mean. In kind it is functional.

Test [14] is described as follows: restored growth of temperature-sensitive Burl-1 yeast – whole organism, S. cerevisiae, Burl-1 ts mutant, luminescence, counter-screen for SUMOylation pathway inhibitor project, dose response (AID 463199). In kind it is functional.
Test [15] deals with T3, Corticotropin-releasing factor receptor 2/Corticotropin-releasing factor-binding protein. Description: Dose Response confirmation of uHTS hits for small molecule antagonists of the CRF-binding protein and CRF-R2 receptor complex. In kind it is functional. The conditions noted are these: read-out: IC50_Mean.
A short description of test [16]: DRD fibroblast viability loss – cell-based, non-viral oncogenic, luminescence, dose response (AID 1934). In kind it is functional. The conditions noted are these: Homo sapiens.
For test [17], the system named is Jurkat. Description: SAR Analysis of small molecule inhibitors of T-cell specific antigen receptor-induced NF-kB activation in a Jurkat cell line using a luminescence assay - Set 2. [Related pubchem assays (depositor defined):AID435003, AID435012, AID465]. In kind it is functional, cell-based. The conditions noted are these: Homo sapiens.
A short description of test [18]: HEK-293T viability loss, compound-treated – cell-based, uHTS hits, cytotoxicity control for B/T-cell NF-kB inhibitor project, dose response (AID 489019).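 Further: IC50 reflects cytotoxicity as loss of cell viability.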 In kind it is functional.
Test [19] deals with BJ. Description: BJ-TERT fibroblast viability loss – cell-based, RAS-independent, luminescence, dose response (AID 1933). The note with it: Homo sapiens. In kind it is functional.
In test [20] the test system is Jurkat. Description: blockers of NF-kB activation in T cells – Jurkat, luciferase reporter, luminescence, B- and T-cell, dose response (AID 489004).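 Further: NF-kB luciferase reporter Jurkat cells stimulated with PMA plus ionomycin.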 In kind it is functional, cell-based. The conditions noted are these: Homo sapiens.
Test [21] concerns BJ. In words: BJ-TERT-LT-ST fibroblast viability loss – cell-based, RAS-independent, luminescence, dose response (AID 1935).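 Further: BJ fibroblasts immortalized with TERT plus LT and ST oncogenes.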 In kind it is functional. The note with it: Homo sapiens.
In test [22] the test system is HEK293. In words: HEK293T cell viability loss, resazurin readout – resazurin fluorescence, cytotoxicity control for NF-kB activator project, SAR follow-up (AID 493251). In kind it is functional, cell-based. The note with it: Homo sapiens. On the technique in general: Alamar Blue is a resazurin reagent that responds to reducing activity.
Test [23] concerns BJ. In words: cells. The conditions noted are these: Homo sapiens. In kind it is functional, cell-based.
In test [24] the test system is HEK293. Description: SAR Analysis of small molecule inhibitors of T-cell specific antigen receptor-induced NF-kB activation in a HEK-293T cell line using a luminescence assay - Set 2. [Related pubchem assays (depositor defined):AID435003, AID435012, AID489026]. The note with it: Homo sapiens. In kind it is functional, cell-based.
The target of test [25] is ATP-dependent molecular chaperone HSP82 (Candida albicans (strain WO-1) (Yeast), UniProt C4YTQ8). In words: steroid-induced GRE reporter decrease in yeast – S. cerevisiae, luminescence, Hsp90 inhibitor project, dose response (AID 2400).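 Further: beta-galactosidase luminescence from glucocorticoid response element reporter as proxy for Hsp90 function; inhibitor potency where signal loss means Hsp90 inhibition.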 In kind it is functional, cell-based.
ATP-dependent molecular chaperone HSP82, sequence (C4YTQ8 whole entry): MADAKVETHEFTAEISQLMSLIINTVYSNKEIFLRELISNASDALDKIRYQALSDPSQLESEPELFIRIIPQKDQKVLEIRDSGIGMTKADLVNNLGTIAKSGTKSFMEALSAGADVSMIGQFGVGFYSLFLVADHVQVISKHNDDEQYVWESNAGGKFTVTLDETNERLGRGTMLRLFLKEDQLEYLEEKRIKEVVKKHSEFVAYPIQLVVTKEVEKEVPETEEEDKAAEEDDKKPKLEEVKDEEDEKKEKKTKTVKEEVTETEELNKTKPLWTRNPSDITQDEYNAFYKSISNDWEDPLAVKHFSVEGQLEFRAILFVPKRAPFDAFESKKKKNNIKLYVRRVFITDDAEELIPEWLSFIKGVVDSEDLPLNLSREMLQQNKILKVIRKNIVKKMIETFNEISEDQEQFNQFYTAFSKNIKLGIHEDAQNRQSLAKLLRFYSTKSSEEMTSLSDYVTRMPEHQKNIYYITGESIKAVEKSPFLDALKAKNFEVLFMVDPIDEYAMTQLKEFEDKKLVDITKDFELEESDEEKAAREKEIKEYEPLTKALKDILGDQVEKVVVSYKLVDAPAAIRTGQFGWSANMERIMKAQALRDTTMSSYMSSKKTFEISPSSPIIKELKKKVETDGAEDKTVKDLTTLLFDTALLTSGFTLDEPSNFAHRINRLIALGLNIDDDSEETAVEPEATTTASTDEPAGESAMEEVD
Test [26] addresses Serine/threonine-protein phosphatase (Candida dubliniensis (strain CD36 / CBS 7987 / NCPF 3949 / NRRLY-17841) (Yeast), UniProt B9W6M3). Description: blockers of CaCl2-induced CDRE-lacZ signaling – S. cerevisiae, luminescence, secondary, dose response (AID 2388).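 Further: yeast reporter cells carrying a calcineurin-responsive lacZ construct stimulated with calcium chloride; luminescent beta-galactosidase reporter signal in whole cells rather than isolated phosphatase activity; potency for inhibition where a drop in reporter signal means calcineurin blockade.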 In kind it is functional, cell-based.
Test [27] in a line: fluconazole-exposed Candida albicans growth modulators – fluorescence, retest, confirmation (AID 2467). In kind it is functional, cell-based.
Test [28] in a line: NIH-3T3 fibroblast cytotoxicity, dose response, cytotoxicity control, cell-based, fluorescence, Alamar Blue, secondary assay (AID 2327).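 Further: NIH-3T3 mouse fibroblasts cultured with fluconazole at 8 µg/mL.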 In kind it is functional.

SWI/SNF-related matrix-associated actin-dependent regulator of chromatin subfamily A member 2, sequence (P51531 whole entry): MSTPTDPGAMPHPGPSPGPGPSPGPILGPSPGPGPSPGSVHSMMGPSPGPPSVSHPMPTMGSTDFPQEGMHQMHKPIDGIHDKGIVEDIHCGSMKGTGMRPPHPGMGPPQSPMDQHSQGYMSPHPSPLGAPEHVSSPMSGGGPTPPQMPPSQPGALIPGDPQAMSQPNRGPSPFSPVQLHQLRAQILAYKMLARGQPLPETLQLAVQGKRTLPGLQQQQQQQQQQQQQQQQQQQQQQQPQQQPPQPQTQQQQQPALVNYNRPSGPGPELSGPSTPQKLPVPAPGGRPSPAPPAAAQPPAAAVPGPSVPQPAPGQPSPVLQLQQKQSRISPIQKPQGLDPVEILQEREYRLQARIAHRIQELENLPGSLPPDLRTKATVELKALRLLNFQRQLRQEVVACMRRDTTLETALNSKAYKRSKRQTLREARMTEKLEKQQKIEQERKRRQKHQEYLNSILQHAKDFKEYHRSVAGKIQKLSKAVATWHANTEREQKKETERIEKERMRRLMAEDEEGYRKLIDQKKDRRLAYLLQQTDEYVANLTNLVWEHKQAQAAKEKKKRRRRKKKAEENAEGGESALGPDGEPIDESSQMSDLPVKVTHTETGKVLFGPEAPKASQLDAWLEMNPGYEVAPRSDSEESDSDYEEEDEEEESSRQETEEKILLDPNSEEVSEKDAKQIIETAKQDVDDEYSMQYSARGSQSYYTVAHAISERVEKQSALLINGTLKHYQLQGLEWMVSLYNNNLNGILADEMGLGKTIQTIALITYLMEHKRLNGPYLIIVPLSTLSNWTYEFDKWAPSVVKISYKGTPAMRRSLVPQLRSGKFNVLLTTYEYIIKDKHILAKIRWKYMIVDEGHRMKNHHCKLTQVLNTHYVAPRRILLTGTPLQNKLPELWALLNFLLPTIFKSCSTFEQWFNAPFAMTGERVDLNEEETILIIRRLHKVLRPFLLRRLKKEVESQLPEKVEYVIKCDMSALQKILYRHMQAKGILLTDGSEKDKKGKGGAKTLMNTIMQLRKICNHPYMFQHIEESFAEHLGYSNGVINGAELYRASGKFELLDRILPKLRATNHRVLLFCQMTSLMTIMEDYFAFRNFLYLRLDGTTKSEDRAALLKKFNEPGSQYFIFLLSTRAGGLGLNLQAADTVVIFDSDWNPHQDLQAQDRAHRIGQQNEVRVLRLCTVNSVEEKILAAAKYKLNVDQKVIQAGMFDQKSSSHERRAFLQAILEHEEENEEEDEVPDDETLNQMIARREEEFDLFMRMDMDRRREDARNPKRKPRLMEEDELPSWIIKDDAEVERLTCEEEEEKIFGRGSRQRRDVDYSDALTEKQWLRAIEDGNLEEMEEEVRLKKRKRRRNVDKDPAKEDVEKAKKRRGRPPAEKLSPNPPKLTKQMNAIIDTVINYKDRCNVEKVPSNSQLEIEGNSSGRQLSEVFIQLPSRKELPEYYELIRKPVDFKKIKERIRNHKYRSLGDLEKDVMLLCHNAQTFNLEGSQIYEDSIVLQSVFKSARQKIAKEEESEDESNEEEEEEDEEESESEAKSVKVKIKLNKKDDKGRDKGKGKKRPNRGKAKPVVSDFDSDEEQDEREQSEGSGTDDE
Neuropeptide Y receptor type 2, sequence (P49146 whole entry): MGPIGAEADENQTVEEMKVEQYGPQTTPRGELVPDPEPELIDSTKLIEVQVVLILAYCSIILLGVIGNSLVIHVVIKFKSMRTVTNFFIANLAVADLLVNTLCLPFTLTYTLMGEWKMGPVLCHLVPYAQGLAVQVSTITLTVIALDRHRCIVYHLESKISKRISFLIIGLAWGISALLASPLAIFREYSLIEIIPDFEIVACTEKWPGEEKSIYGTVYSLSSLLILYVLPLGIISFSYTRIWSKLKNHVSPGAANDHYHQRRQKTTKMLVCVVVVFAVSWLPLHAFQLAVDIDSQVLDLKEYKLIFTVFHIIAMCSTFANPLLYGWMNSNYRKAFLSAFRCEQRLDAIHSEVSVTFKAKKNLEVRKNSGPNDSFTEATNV
DNA (cytosine-5)-methyltransferase 1, sequence (P26358 whole entry): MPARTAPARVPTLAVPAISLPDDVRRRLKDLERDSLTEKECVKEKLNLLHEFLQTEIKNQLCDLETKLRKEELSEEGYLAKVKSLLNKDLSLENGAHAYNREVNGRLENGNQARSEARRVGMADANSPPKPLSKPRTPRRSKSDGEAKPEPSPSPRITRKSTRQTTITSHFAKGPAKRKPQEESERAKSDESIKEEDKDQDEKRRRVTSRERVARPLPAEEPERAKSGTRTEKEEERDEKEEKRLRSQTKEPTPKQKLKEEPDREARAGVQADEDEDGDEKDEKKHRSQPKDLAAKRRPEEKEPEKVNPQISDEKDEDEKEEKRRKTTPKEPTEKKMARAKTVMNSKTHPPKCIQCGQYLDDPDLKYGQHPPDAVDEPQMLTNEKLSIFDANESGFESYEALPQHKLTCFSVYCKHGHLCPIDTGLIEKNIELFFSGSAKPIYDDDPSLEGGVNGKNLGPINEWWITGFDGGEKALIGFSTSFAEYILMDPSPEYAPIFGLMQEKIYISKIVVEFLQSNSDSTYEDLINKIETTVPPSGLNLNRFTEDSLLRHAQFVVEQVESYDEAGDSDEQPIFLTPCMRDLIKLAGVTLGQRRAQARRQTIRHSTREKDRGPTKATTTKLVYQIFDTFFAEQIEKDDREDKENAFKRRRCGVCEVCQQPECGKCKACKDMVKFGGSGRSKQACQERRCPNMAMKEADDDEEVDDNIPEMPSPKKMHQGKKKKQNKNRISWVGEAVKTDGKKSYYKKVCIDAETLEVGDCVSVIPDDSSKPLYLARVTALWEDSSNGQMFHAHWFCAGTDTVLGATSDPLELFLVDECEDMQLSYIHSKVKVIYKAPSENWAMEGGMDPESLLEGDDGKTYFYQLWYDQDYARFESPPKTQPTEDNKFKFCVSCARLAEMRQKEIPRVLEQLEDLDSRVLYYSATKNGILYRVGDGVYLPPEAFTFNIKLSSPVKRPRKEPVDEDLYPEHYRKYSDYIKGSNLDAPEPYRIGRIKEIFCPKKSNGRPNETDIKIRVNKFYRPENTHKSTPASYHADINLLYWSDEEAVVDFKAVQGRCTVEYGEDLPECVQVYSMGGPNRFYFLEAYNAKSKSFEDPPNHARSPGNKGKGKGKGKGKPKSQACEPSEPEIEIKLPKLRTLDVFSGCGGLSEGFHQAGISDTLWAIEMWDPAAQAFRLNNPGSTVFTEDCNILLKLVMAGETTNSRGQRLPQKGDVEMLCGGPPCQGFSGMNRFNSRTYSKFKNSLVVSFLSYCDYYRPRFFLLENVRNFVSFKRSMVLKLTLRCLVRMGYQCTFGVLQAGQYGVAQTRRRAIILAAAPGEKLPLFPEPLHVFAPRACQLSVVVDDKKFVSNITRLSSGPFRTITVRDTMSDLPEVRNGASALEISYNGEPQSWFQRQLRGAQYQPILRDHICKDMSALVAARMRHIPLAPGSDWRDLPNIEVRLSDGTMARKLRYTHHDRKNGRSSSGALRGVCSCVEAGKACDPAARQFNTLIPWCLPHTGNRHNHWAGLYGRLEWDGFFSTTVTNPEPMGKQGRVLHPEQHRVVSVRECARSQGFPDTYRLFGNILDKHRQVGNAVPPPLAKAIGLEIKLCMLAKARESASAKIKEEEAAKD

What is called AC50 is the concentration giving half of the maximal activity seen. On to `c1ccc2c(c1)C1=NCCN1c1ccccc1-2`, for which the EC50 in test [1] was > 91.3 µM (inactive); in the test with HEK293 [2] it was > 59.8 µM (inactive); in test [4] it was > 3.38 µM (active); in the test with HEK293 [7], > 59.8 µM (inactive). The IC50 was 9.24 µM (active) in test [3] and 37 µM (inactive) in test [6]. For the same compound, the AC50 in test [5] was 5.19 µM (active).

As for `Clc1ccc(OCc2nnc(SCc3nc4ccccc4[nH]3)n2Cc2ccco2)cc1`, the EC50 in [8] is > 35.4 µM (not active); in the test with HEK293 [9] it was > 35.4 µM (not active); in test [10], 0.0069 µM (active); in test [11], 0.205 µM (active); in test [12], > 35.4 µM (not active).

Consider `CCCCn1c(N)c(N(Cc2ccccc2OC)C(=O)c2c(CC)noc2C)c(=O)[nH]c1=O`, for which the EC50 in test [13] was > 53 µM (inactive). The AC50 in test [14] is 61.2 µM (active). Further, the IC50 in test [15] is > 47.1 µM (inactive).

As for `COc1cc2nc(NC(=O)c3ccccc3)sc(=O)c2cc1OC`, the EC50 in [16] is 79 µM (active); with BJ [19], 20.1 µM (active); with BJ [21] it was > 150 µM (inconclusive); in the test on BJ [23] it was > 150 µM (not active). Moreover, the IC50 in the test on Jurkat [17] was 0.56 µM (active); in test [18], > 80 µM (inactive); in the test with Jurkat [20], 0.76 µM (active); with HEK293 [22] it was > 80 µM (inactive); in the test with HEK293 [24], 65.6 µM (inactive).

Consider `Oc1nc(S)nnc1Cc1ccc(Cl)c(Cl)c1`, for which the EC50 in [25] was > 160 µM (inactive); in [26] it was > 180 µM (inactive); in test [27] it was 0.241 µM (active); in [28], > 160 µM (inactive).
